Experimental data from ChEMBL document CHEMBL3885861, “Open TG-GATES”.

Organism: Rattus norvegicus
Test: Open TG-GATES - Regimen: Single
Assay type: toxicity, organism-based, Sprague-Dawley
Parameters: regimen Single, gender Male, age 6 weeks
Conditions: in vivo, po, route gavage; for Bas / Eos / Fbg / Lym / Mono / RBC / Ret / WBC: tissue Blood; for KIDNEY_L / KIDNEY_R / KIDNEY_TOTAL: tissue Kidney; for ALP / CRE / DBIL / IP / K / LDH / Na / PL / RALB / TBIL / TG / TP / gamma-GTP / GLC: tissue Plasma
[1] = 0 mg/kg, 3 h, dose level Control
[2] = 0 mg/kg, 6 h, dose level Control
[3] = 0 mg/kg, 9 h, dose level Control
[4] = 0 mg/kg, 24 h, dose level Control

C=C[C@H]1C[N@@]2CC[C@H]1C[C@@H]2[C@@H](O)c1ccnc2ccc(OC)cc12 [QUINIDINE]
TERMINAL_BW [1]: 212.2 g
Bas [1]: 0%
Eos [1]: 0.8%
Fbg [1]: 313.6 mg/dL
Lym [1]: 78.2%
Mono [1]: 1.8%
RBC [1]: 615 x10_4/ul
Ret [1]: 7.3%
WBC [1]: 86.7 x10_2/uL
KIDNEY_L [1]: 0.9 g
KIDNEY_R [1]: 1 g
KIDNEY_TOTAL [1]: 1.9 g
ALP [1]: 1497.8 IU/L
CRE [1]: 0.2 mg/dL
DBIL [1]: 0 mg/dL
IP [1]: 8.8 mg/dL
K [1]: 3.9 meq/L
LDH [1]: 153 IU/L
Na [1]: 143.8 meq/L
PL [1]: 136 mg/dL
RALB [1]: 3 g/dL
TBIL [1]: 0.018 mg/dL
TG [1]: 60.6 mg/dL
TP [1]: 5.4 g/dL
gamma-GTP [1]: 1.8 IU/L
TERMINAL_BW [2]: 213.3 g
Bas [2]: 0%
Eos [2]: 0.6%
Fbg [2]: 318.2 mg/dL
Lym [2]: 81.4%
Mono [2]: 2.2%
RBC [2]: 641 x10_4/ul
Ret [2]: 7%
WBC [2]: 100 x10_2/uL
KIDNEY_L [2]: 1 g
KIDNEY_R [2]: 1 g
KIDNEY_TOTAL [2]: 1.9 g
ALP [2]: 1503.8 IU/L
CRE [2]: 0.2 mg/dL
DBIL [2]: 0 mg/dL
IP [2]: 9.3 mg/dL
K [2]: 4.2 meq/L
LDH [2]: 187 IU/L
Na [2]: 143 meq/L
PL [2]: 134.8 mg/dL
RALB [2]: 3.1 g/dL
TBIL [2]: 0.018 mg/dL
TG [2]: 73.6 mg/dL
TP [2]: 5.4 g/dL
gamma-GTP [2]: 1.2 IU/L
TERMINAL_BW [3]: 212.8 g
Bas [3]: 0%
Eos [3]: 0.4%
Fbg [3]: 288.2 mg/dL
Lym [3]: 79.4%
Mono [3]: 2%
RBC [3]: 614.8 x10_4/ul
Ret [3]: 6.9%
WBC [3]: 84.8 x10_2/uL
KIDNEY_L [3]: 1 g
KIDNEY_R [3]: 1 g
KIDNEY_TOTAL [3]: 1.9 g
ALP [3]: 1297.8 IU/L
CRE [3]: 0.2 mg/dL
DBIL [3]: 0 mg/dL
GLC [3]: 174.2 mg/dL
IP [3]: 9.6 mg/dL
K [3]: 4.4 meq/L
LDH [3]: 136.6 IU/L
Na [3]: 143.8 meq/L
PL [3]: 131.6 mg/dL
RALB [3]: 3 g/dL
TBIL [3]: 0.022 mg/dL
TG [3]: 66 mg/dL
TP [3]: 5.5 g/dL
gamma-GTP [3]: 1.6 IU/L
TERMINAL_BW [4]: 227.4 g
Bas [4]: 0%
Eos [4]: 0.8%
Fbg [4]: 298.2 mg/dL
Lym [4]: 78.6%
Mono [4]: 1.8%
RBC [4]: 618.4 x10_4/ul
Ret [4]: 6.9%
WBC [4]: 90.9 x10_2/uL
KIDNEY_L [4]: 1 g
KIDNEY_R [4]: 1 g
KIDNEY_TOTAL [4]: 2 g
ALP [4]: 1610.6 IU/L
CRE [4]: 0.1 mg/dL
DBIL [4]: 0 mg/dL
IP [4]: 7.9 mg/dL
K [4]: 4.3 meq/L
LDH [4]: 202.2 IU/L
Na [4]: 141.6 meq/L
PL [4]: 149.8 mg/dL
RALB [4]: 3 g/dL
TBIL [4]: 0.008 mg/dL
TP [4]: 5.7 g/dL
gamma-GTP [4]: 1.6 IU/L
TERMINAL_BW (20 mg/kg, 3 h, dose level Low): 218.9 g
Bas (20 mg/kg, 3 h, dose level Low): 0%
Eos (20 mg/kg, 3 h, dose level Low): 0.2%
Fbg (20 mg/kg, 3 h, dose level Low): 293.2 mg/dL
Lym (20 mg/kg, 3 h, dose level Low): 81%
Mono (20 mg/kg, 3 h, dose level Low): 2%
RBC (20 mg/kg, 3 h, dose level Low): 600.6 x10_4/ul
Ret (20 mg/kg, 3 h, dose level Low): 7.5%
WBC (20 mg/kg, 3 h, dose level Low): 73.2 x10_2/uL
KIDNEY_L (20 mg/kg, 3 h, dose level Low): 1 g
KIDNEY_R (20 mg/kg, 3 h, dose level Low): 1 g
KIDNEY_TOTAL (20 mg/kg, 3 h, dose level Low): 2 g
ALP (20 mg/kg, 3 h, dose level Low): 1446.4 IU/L
CRE (20 mg/kg, 3 h, dose level Low): 0.2 mg/dL
DBIL (20 mg/kg, 3 h, dose level Low): 0 mg/dL
GLC (20 mg/kg, 3 h, dose level Low): 178.4 mg/dL
IP (20 mg/kg, 3 h, dose level Low): 8.7 mg/dL
K (20 mg/kg, 3 h, dose level Low): 3.7 meq/L
Na (20 mg/kg, 3 h, dose level Low): 142 meq/L
PL (20 mg/kg, 3 h, dose level Low): 145 mg/dL
RALB (20 mg/kg, 3 h, dose level Low): 3 g/dL
TBIL (20 mg/kg, 3 h, dose level Low): 0.022 mg/dL
TG (20 mg/kg, 3 h, dose level Low): 68.2 mg/dL
TP (20 mg/kg, 3 h, dose level Low): 5.4 g/dL
gamma-GTP (20 mg/kg, 3 h, dose level Low): 1.8 IU/L
TERMINAL_BW (20 mg/kg, 6 h, dose level Low): 214.6 g
Bas (20 mg/kg, 6 h, dose level Low): 0%
Eos (20 mg/kg, 6 h, dose level Low): 0.8%
Fbg (20 mg/kg, 6 h, dose level Low): 294.2 mg/dL
Lym (20 mg/kg, 6 h, dose level Low): 78%
Mono (20 mg/kg, 6 h, dose level Low): 2.6%
RBC (20 mg/kg, 6 h, dose level Low): 617.4 x10_4/ul
Ret (20 mg/kg, 6 h, dose level Low): 7.3%
WBC (20 mg/kg, 6 h, dose level Low): 80 x10_2/uL
KIDNEY_L (20 mg/kg, 6 h, dose level Low): 0.9 g
KIDNEY_R (20 mg/kg, 6 h, dose level Low): 1 g
KIDNEY_TOTAL (20 mg/kg, 6 h, dose level Low): 1.9 g
ALP (20 mg/kg, 6 h, dose level Low): 1616.2 IU/L
CRE (20 mg/kg, 6 h, dose level Low): 0.2 mg/dL
DBIL (20 mg/kg, 6 h, dose level Low): 0.004 mg/dL
IP (20 mg/kg, 6 h, dose level Low): 9.4 mg/dL
K (20 mg/kg, 6 h, dose level Low): 4 meq/L
Na (20 mg/kg, 6 h, dose level Low): 142.8 meq/L
PL (20 mg/kg, 6 h, dose level Low): 140.6 mg/dL
RALB (20 mg/kg, 6 h, dose level Low): 3 g/dL
TBIL (20 mg/kg, 6 h, dose level Low): 0.034 mg/dL
TG (20 mg/kg, 6 h, dose level Low): 55.6 mg/dL
TP (20 mg/kg, 6 h, dose level Low): 5.4 g/dL
gamma-GTP (20 mg/kg, 6 h, dose level Low): 1.2 IU/L
TERMINAL_BW (20 mg/kg, 9 h, dose level Low): 213.3 g
Bas (20 mg/kg, 9 h, dose level Low): 0%
Eos (20 mg/kg, 9 h, dose level Low): 0.8%
Fbg (20 mg/kg, 9 h, dose level Low): 302.6 mg/dL
Lym (20 mg/kg, 9 h, dose level Low): 77.2%
Mono (20 mg/kg, 9 h, dose level Low): 2.2%
RBC (20 mg/kg, 9 h, dose level Low): 642 x10_4/ul
Ret (20 mg/kg, 9 h, dose level Low): 6.9%
WBC (20 mg/kg, 9 h, dose level Low): 88 x10_2/uL
KIDNEY_L (20 mg/kg, 9 h, dose level Low): 1 g
KIDNEY_R (20 mg/kg, 9 h, dose level Low): 1 g
KIDNEY_TOTAL (20 mg/kg, 9 h, dose level Low): 2 g
ALP (20 mg/kg, 9 h, dose level Low): 1487 IU/L
CRE (20 mg/kg, 9 h, dose level Low): 0.2 mg/dL
DBIL (20 mg/kg, 9 h, dose level Low): 0 mg/dL
IP (20 mg/kg, 9 h, dose level Low): 9.3 mg/dL
K (20 mg/kg, 9 h, dose level Low): 4.4 meq/L
LDH (20 mg/kg, 9 h, dose level Low): 133.8 IU/L
Na (20 mg/kg, 9 h, dose level Low): 143.8 meq/L
PL (20 mg/kg, 9 h, dose level Low): 136.8 mg/dL
RALB (20 mg/kg, 9 h, dose level Low): 3 g/dL
TBIL (20 mg/kg, 9 h, dose level Low): 0.02 mg/dL
TG (20 mg/kg, 9 h, dose level Low): 83.4 mg/dL
TP (20 mg/kg, 9 h, dose level Low): 5.5 g/dL
gamma-GTP (20 mg/kg, 9 h, dose level Low): 1.6 IU/L
TERMINAL_BW (20 mg/kg, 24 h, dose level Low): 228.7 g
Bas (20 mg/kg, 24 h, dose level Low): 0%
Eos (20 mg/kg, 24 h, dose level Low): 1%
Fbg (20 mg/kg, 24 h, dose level Low): 321.4 mg/dL
Lym (20 mg/kg, 24 h, dose level Low): 82.4%
Mono (20 mg/kg, 24 h, dose level Low): 2.4%
RBC (20 mg/kg, 24 h, dose level Low): 632.8 x10_4/ul
Ret (20 mg/kg, 24 h, dose level Low): 6.7%
WBC (20 mg/kg, 24 h, dose level Low): 97.6 x10_2/uL
KIDNEY_L (20 mg/kg, 24 h, dose level Low): 1 g
KIDNEY_R (20 mg/kg, 24 h, dose level Low): 1 g
KIDNEY_TOTAL (20 mg/kg, 24 h, dose level Low): 1.9 g
ALP (20 mg/kg, 24 h, dose level Low): 1563 IU/L
CRE (20 mg/kg, 24 h, dose level Low): 0.1 mg/dL
DBIL (20 mg/kg, 24 h, dose level Low): 0.002 mg/dL
IP (20 mg/kg, 24 h, dose level Low): 7.7 mg/dL
K (20 mg/kg, 24 h, dose level Low): 4 meq/L
Na (20 mg/kg, 24 h, dose level Low): 140.4 meq/L
RALB (20 mg/kg, 24 h, dose level Low): 3.1 g/dL
TBIL (20 mg/kg, 24 h, dose level Low): 0 mg/dL
TG (20 mg/kg, 24 h, dose level Low): 147.8 mg/dL
TP (20 mg/kg, 24 h, dose level Low): 5.8 g/dL
gamma-GTP (20 mg/kg, 24 h, dose level Low): 1.8 IU/L
TERMINAL_BW (60 mg/kg, 3 h, dose level Middle): 222.4 g
